Measurements as given in PubChem BioAssay (NCI).
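Briefly, cells in 96-well plates were exposed to five compound concentrations for 48 h, and endpoints were estimated by linear interpolation. TGI is the concentration that stops growth completely.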

Key:
Experiment in all cases: NCI tumour cell line growth inhibition, 48 h
[1] = tested on: 786-0 renal
[2] = tested on: A498 renal
[3] = tested on: A549 NSCLC
[4] = tested on: ACHN renal
[5] = tested on: CAKI-1 renal
[6] = tested on: CCRF-CEM leukemia
[7] = tested on: COLO 205 colon
[8] = tested on: DLD-1 colon
[9] = tested on: DMS 114 small cell lung
[10] = tested on: DMS 273 small cell lung
[11] = tested on: EKVX NSCLC
[12] = tested on: HCC-2998 colon
[13] = tested on: HCT-116 colon
[14] = tested on: HCT-15 colon
[15] = tested on: HL-60(TB) leukemia
[16] = tested on: HOP-18 NSCLC
[17] = tested on: HOP-62 NSCLC
[18] = tested on: HOP-92 NSCLC
[19] = tested on: HT29 colon
[20] = tested on: IGROV1 ovarian
[21] = tested on: K-562 leukemia
[22] = tested on: KM12 colon
[23] = tested on: KM20L2 colon
[24] = tested on: LOX IMVI melanoma
[25] = tested on: LXFL 529 NSCLC
[26] = tested on: M14 melanoma
[27] = tested on: M19-MEL melanoma
[28] = tested on: MALME-3M melanoma
[29] = tested on: MOLT-4 leukemia
[30] = tested on: NCI-H226 lung
[31] = tested on: NCI-H23 lung
[32] = tested on: NCI-H460 lung
[33] = tested on: NCI-H522 lung
[34] = tested on: OVCAR-3 ovarian
[35] = tested on: OVCAR-4 ovarian
[36] = tested on: OVCAR-5 ovarian
[37] = tested on: OVCAR-8 ovarian
[38] = tested on: RXF 393 renal
[39] = tested on: SF-268 CNS
[40] = tested on: SF-295 CNS
[41] = tested on: SF-539 CNS
[42] = tested on: SK-MEL-2 melanoma
[43] = tested on: SK-MEL-28 melanoma
[44] = tested on: SK-MEL-5 melanoma
[45] = tested on: SK-OV-3 ovarian
[46] = tested on: SN12C renal
[47] = tested on: SNB-19 CNS
[48] = tested on: SNB-75 CNS
[49] = tested on: SNB-78 CNS
[50] = tested on: SW-620 colon
[51] = tested on: TK-10 renal
[52] = tested on: U251 CNS
[53] = tested on: UACC-257 melanoma
[54] = tested on: UACC-62 melanoma
[55] = tested on: UO-31 renal
[56] = tested on: XF 498 CNS
[57] = tested on: RPMI-8226 leukemia

## COc1ccc(O)cc1C(O)c1ccccc1 (centres undefined)
[1]
  TGI: > 100 µM
[2]
  TGI: > 100 µM
[3]
  TGI: > 100 µM
[4]
  TGI: > 100 µM
[5]
  TGI: > 100 µM
[6]
  TGI: > 100 µM
[7]
  TGI: > 100 µM
[8]
  TGI: > 100 µM
[9]
  TGI: > 100 µM
[10]
  TGI: > 100 µM
[11]
  TGI: > 100 µM
[12]
  TGI: > 100 µM
[13]
  TGI: > 100 µM
[14]
  TGI: > 100 µM
[15]
  TGI: > 100 µM
[16]
  TGI: > 100 µM
[17]
  TGI: > 100 µM
[18]
  TGI: > 100 µM
[19]
  TGI: > 100 µM
[20]
  TGI: > 100 µM
[21]
  TGI: > 100 µM
[22]
  TGI: > 100 µM
[23]
  TGI: > 100 µM
[24]
  TGI: > 100 µM
[25]
  TGI: > 100 µM
[26]
  TGI: > 100 µM
[27]
  TGI: > 100 µM
[28]
  TGI: > 100 µM
[29]
  TGI: > 100 µM
[30]
  TGI: > 100 µM
[31]
  TGI: > 100 µM
[32]
  TGI: > 100 µM
[33]
  TGI: > 100 µM
[34]
  TGI: > 100 µM
[35]
  TGI: > 100 µM
[36]
  TGI: > 100 µM
[37]
  TGI: > 100 µM
[38]
  TGI: > 100 µM
[39]
  TGI: > 100 µM
[40]
  TGI: > 100 µM
[41]
  TGI: > 100 µM
[42]
  TGI: > 100 µM
[43]
  TGI: > 100 µM
[44]
  TGI: > 100 µM
[45]
  TGI: > 100 µM
[46]
  TGI: > 100 µM
[47]
  TGI: > 100 µM
[48]
  TGI: > 100 µM
[49]
  TGI: > 100 µM
[50]
  TGI: > 100 µM
[51]
  TGI: > 100 µM
[52]
  TGI: > 100 µM
[53]
  TGI: > 100 µM
[54]
  TGI: > 100 µM
[55]
  TGI: > 100 µM
[56]
  TGI: > 100 µM

## Nc1nc2c(-c3ccc([N+](=O)[O-])cc3)nnn2c2ccccc12
[1]
  TGI: > 100 µM
[2]
  TGI: > 100 µM
[3]
  TGI: > 100 µM
[4]
  TGI: > 100 µM
[5]
  TGI: > 100 µM
[7]
  TGI: > 100 µM
[8]
  TGI: > 100 µM
[10]
  TGI: > 100 µM
[11]
  TGI: > 100 µM
[12]
  TGI: > 100 µM
[14]
  TGI: > 100 µM
[15]
  TGI: > 100 µM
[16]
  TGI: > 100 µM
[17]
  TGI: > 100 µM
[18]
  TGI: > 100 µM
[19]
  TGI: > 100 µM
[20]
  TGI: > 100 µM
[21]
  TGI: > 100 µM
[22]
  TGI: > 100 µM
[24]
  TGI: > 100 µM
[25]
  TGI: > 100 µM
[26]
  TGI: > 100 µM
[27]
  TGI: > 100 µM
[28]
  TGI: > 100 µM
[29]
  TGI: > 100 µM
[30]
  TGI: > 100 µM
[31]
  TGI: > 100 µM
[32]
  TGI: > 100 µM
[34]
  TGI: 95.3 µM
[35]
  TGI: > 100 µM
[36]
  TGI: > 100 µM
[37]
  TGI: > 100 µM
[57]
  TGI: > 100 µM
[39]
  TGI: > 100 µM
[40]
  TGI: > 100 µM
[41]
  TGI: > 100 µM
[42]
  TGI: > 100 µM
[43]
  TGI: > 100 µM
[45]
  TGI: > 100 µM
[46]
  TGI: > 100 µM
[47]
  TGI: > 100 µM
[49]
  TGI: > 100 µM
[50]
  TGI: > 100 µM
[51]
  TGI: 48.9 µM
[52]
  TGI: 66.4 µM
[54]
  TGI: > 100 µM
[55]
  TGI: > 100 µM
[56]
  TGI: > 100 µM
